Data reported in US12180187B2, “1-phenyl-5-azinylpyrazolyl-3-oxyalkyl acids and their use for controlling unwanted plant growth” (BAYER AKTIENGESELLSCHAFT, priority 2019, dated 2024).

Legend:
[1] = system: DIGSA; assay: Pre-emergence action against DIGSA, 1280 g/ha; assay type: in vivo, Digitaria sanguinalis; conditions: visual scoring after about 3 weeks vs untreated controls, 100% = plants have died, 0% = like control plants
Excerpt: (§1) 1. Pre-Emergence Herbicidal Effect and Crop Plant Compatibility a) Seeds of mono- and dicotyledonous weed plants are placed in plastic pots in sandy loam soil (doubly sown with one species each of mono- or dicotyledonous weed plants per pot) and covered with soil. The compounds of the invention, formulated in the form of wettable powders (WP) or as emulsion concentrates (EC), are then applied onto the surface of the covering soil as aqueous suspension or emulsion with addition of 0.5% additive at a water application rate equivalent to 600 litres per hectare. After the treatment, the pots are placed in a greenhouse and kept under good growth conditions for the trial plants. After about 3 weeks, the effect of the preparations is scored visually in comparison with untreated controls as percentages. For example, 100% activity=the plants have died, 0% activity=like control plants. 1. Pre-Emergence Effectiveness Tables 1 to 12 below show the effects of selected compounds of the general formula (I) according to Tables 1 and 2 on various harmful plants and at an application rate corresponding to 1280 g/ha, which were obtained by the experimental procedure mentioned above.

[2] = system: POAAN; assay: Pre-emergence action against POAAN, 1280 g/ha; assay type: in vivo, Poa annua; conditions: visual scoring after about 3 weeks vs untreated controls, 100% = plants have died, 0% = like control plants
Excerpt: as §1

[3] = system: VERPE; assay: Pre-emergence action against VERPE, 1280 g/ha; assay type: in vivo, Veronica persica; conditions: scored visually after about 3 weeks vs untreated controls (100% = plants have died)
Excerpt: as §1

[4] = system: DIGSA; assay: Post-emergence action against DIGSA, 1.28 kg/ha; assay type: in vivo, Digitaria sanguinalis; conditions: dosage 1280 g/ha, visual rating about 3 weeks after treatment vs untreated controls
Procedure: (§2) • a) Seeds of mono- and dicotyledonous weed plants are placed in plastic pots in sandy loam soil (twin sowing with one species each of mono- or dicotyledonous weed plants per pot), covered with soil and cultivated in a greenhouse under controlled growth conditions. 2 to 3 weeks after sowing, the test plants are treated at the one-leaf stage. The compounds of the invention, formulated in the form of wettable powders (WP) or as emulsion concentrates (EC), are applied to the green parts of the plants as aqueous suspension or emulsion with addition of 0.5% additive at a water application rate equivalent to 600 litres per hectare. After the test plants have been kept in the greenhouse under optimum growth conditions for about 3 weeks, the activity of the preparations is rated visually in comparison to untreated controls. For example, 100% activity=the plants have died, 0% activity=like control plants. As shown by the results, compounds of the general formula (I) of the invention, in post-emergence treatment, have very good herbicidal efficacy (90% to 100% herbicidal action) against harmful plants such as Abutilon theophrasti, Digitaria sanguinalis, Echinochloa crus-galli, Matricaria inodora, Poa annua, at an application rate of 1.28 kg of active substance per hectare.

[5] = system: VERPE; assay: Post-emergence action against VERPE, 1.28 kg/ha; assay type: in vivo, Veronica persica; conditions: dosage 1280 g/ha, visual rating about 3 weeks after treatment vs untreated controls (100% = plants died)
Procedure: as §2

[6] = system: AMARE; assay: Pre-emergence action against AMARE, 1280 g/ha; assay type: in vivo, Amaranthus retroflexus; conditions: scored visually after about 3 weeks vs untreated controls (100% = plants have died)
Excerpt: as §1

[7] = system: LOLRI; assay: Pre-emergence action against LOLRI, 1280 g/ha; assay type: in vivo, Lolium rigidum; conditions: visual scoring after about 3 weeks vs untreated controls, 100% = plants have died, 0% = like control plants
Excerpt: as §1

[8] = system: SETVI; assay: Pre-emergence action against SETVI, 1280 g/ha; assay type: in vivo, Setaria viridis; conditions: visual scoring after about 3 weeks vs untreated controls, 100% = plants have died, 0% = like control plants
Excerpt: as §1

[9] = system: MATIN; assay: Pre-emergence action against MATIN, 1280 g/ha; assay type: in vivo, Tripleurospermum inodorum (Matricaria inodora); conditions: scored visually after about 3 weeks vs untreated controls (100% = plants have died)
Excerpt: as §1

[10] = system: STEME; assay: Pre-emergence action against STEME, 1280 g/ha; assay type: in vivo, Stellaria media; conditions: scored visually after about 3 weeks vs untreated controls (100% = plants have died)
Excerpt: as §1

[11] = system: ALOMY; assay: Post-emergence action against ALOMY, 1.28 kg/ha; assay type: in vivo, Alopecurus myosuroides; conditions: dosage 1280 g/ha, visual rating about 3 weeks after treatment vs untreated controls
Procedure: as §2

[12] = system: POAAN; assay: Post-emergence action against POAAN, 1.28 kg/ha; assay type: in vivo, Poa annua; conditions: dosage 1280 g/ha, visual rating about 3 weeks after treatment vs untreated controls
Procedure: as §2

[13] = system: AMARE; assay: Post-emergence action against AMARE, 1.28 kg/ha; assay type: in vivo, Amaranthus retroflexus; conditions: dosage 1280 g/ha, visual rating about 3 weeks after treatment vs untreated controls (100% = plants died)
Procedure: as §2

[14] = system: MATIN; assay: Post-emergence action against MATIN, 1.28 kg/ha; assay type: in vivo, Tripleurospermum inodorum (Matricaria inodora); conditions: dosage 1280 g/ha, visual rating about 3 weeks after treatment vs untreated controls (100% = plants died)
Procedure: as §2

[15] = system: ECHCG; assay: Pre-emergence action against ECHCG, 1280 g/ha; assay type: in vivo, Echinochloa crus-galli; conditions: visual scoring after about 3 weeks vs untreated controls, 100% = plants have died, 0% = like control plants
Excerpt: as §1

[16] = system: STEME; assay: Post-emergence action against STEME, 1.28 kg/ha; assay type: in vivo, Stellaria media; conditions: dosage 1280 g/ha, visual rating about 3 weeks after treatment vs untreated controls (100% = plants died)
Procedure: as §2

SMILES	Pre-emergence action against DIGSA [1] [%]	Pre-emergence action against POAAN [2] [%]	Pre-emergence action against VERPE [3] [%]	Post-emergence action against DIGSA [4] [%]	Post-emergence action against VERPE [5] [%]	Pre-emergence action against AMARE [6] [%]	Pre-emergence action against LOLRI [7] [%]	Pre-emergence action against SETVI [8] [%]	Pre-emergence action against MATIN [9] [%]	Pre-emergence action against STEME [10] [%]	Post-emergence action against ALOMY [11] [%]	Post-emergence action against POAAN [12] [%]	Post-emergence action against AMARE [13] [%]	Post-emergence action against MATIN [14] [%]	Pre-emergence action against ECHCG [15] [%]	Post-emergence action against STEME [16] [%]
COC(=O)C(C)Oc1nn(-c2ccccc2)c(-c2ccc(C)nc2)c1Cl (centres unmarked) [VII-013]	90	100	100	90	100	–	–	–	–	–	–	–	–	–	–	–
COC(=O)C(C)Oc1nn(-c2ccccc2)c(-c2ccc(Cl)nc2)c1Cl (centres unmarked) [VII-017]	90	90	100	90	100	90	–	–	–	–	–	–	–	–	–	–
CCOC(=O)COc1nn(-c2ccccc2F)c(-c2ccc(F)nc2)c1SC [VII-021]	–	90	–	–	–	90	–	–	–	–	–	–	–	–	–	–
COC(=O)COc1nn(-c2ccccc2F)c(-c2ccc(OC)nc2)c1Br [VII-022]	–	–	90	–	90	–	–	–	–	–	–	–	–	–	–	–
CSc1c(OCC(=O)O)nn(-c2ccccc2F)c1-c1ccc(F)nc1 [VII-056]	100	90	–	90	90	90	90	90	90	90	100	100	100	100	–	–
CCOC(=O)COc1nn(-c2ccccc2F)c(-c2ccc(OCC)nc2)c1Br [VII-127]	–	–	–	–	–	–	–	–	–	90	–	–	–	–	–	–
CCOC(=O)COc1nn(-c2ccccc2F)c(-c2cnc(F)c(F)c2)c1Br [VII-148]	100	100	90	100	–	100	90	90	90	90	100	100	100	100	90	–
COC(=O)COc1nn(-c2cc(F)ccc2F)c(-c2ccnc(F)c2)c1C#N [VIII-008]	100	100	100	90	90	100	100	100	100	100	100	100	90	90	100	90
